Each structure is given as a SMILES string.

Two molecules from paper PMC12362587, “Untargeted Diversity-Oriented Synthesis for the Discovery of New Antitumor Agents: An Integrated Approach of Inverse Virtual Screening, Bioinformatics, and Omics for Target Deconvolution” (Journal of Medicinal Chemistry, 2025) can be followed below.

In test [1] the target is T1, Poly [ADP-ribose] polymerase 1 (Homo sapiens, UniProt P09874).
T1 construct: purchased BPS Bioscience
Put plainly: PARP1 Colorimetric Assay Kit (BPS Bioscience). It is filed as biochemical. To be noted: top concentration 30 μM; read-out: EC50 or IC50, Poly [ADP-ribose] polymerase 1. On the procedure:
The assay was performed in a volume of 50 μL in 96-well transparent plates. The PARP1 assay kit (BPS Bioscience, USA) was performed by first coating the 96-well plate with histone proteins, then left at 4 °C overnight. Next, Poly [ADP-ribose] polymerase 1 (PARP1) enzyme (final concentration, 0.33 ng per reaction), a mixture of biotinylated NAD^+ (PARP substrate) and compounds were incubated for 1 h at room temperature. The compounds were added at different concentrations in the reaction buffer, starting from a final concentration of 30 μM. Buffer with the same amount of DMSO (1%) was used as a negative control. After incubation, the plate was treated with streptavidin-HRP followed by the addition of the colorimetric HRP substrate generating a colored solution. The generated signal was read at an absorbance of 450 nm using a microplate reader with UV/vis spectrophotometer (Multiskan Go, Thermo Fisher Scientific, Waltham, MA, USA). Experiments were performed in triplicate. IC50 values were calculated with GraphPad Prism 8.0 software by nonlinear dose–response inhibition regression.

Test [2] deals with T2, Poly [ADP-ribose] polymerase tankyrase-1 (Homo sapiens, UniProt O95271).
T2 construct: (TNKS1) enzyme (amino acids 1001–1323; final concentration, 1.5 ng per reaction); purchased BPS Bioscience
T2 sequence (O95271 1001-1323): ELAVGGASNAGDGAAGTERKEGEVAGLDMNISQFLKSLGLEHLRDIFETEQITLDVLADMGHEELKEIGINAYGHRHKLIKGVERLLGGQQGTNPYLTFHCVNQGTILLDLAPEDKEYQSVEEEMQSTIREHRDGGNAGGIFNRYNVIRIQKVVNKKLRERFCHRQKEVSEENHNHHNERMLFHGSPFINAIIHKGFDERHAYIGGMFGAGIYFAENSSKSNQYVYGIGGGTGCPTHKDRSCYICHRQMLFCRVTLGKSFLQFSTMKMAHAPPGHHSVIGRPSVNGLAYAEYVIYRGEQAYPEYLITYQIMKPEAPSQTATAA
Put plainly: TNKS1 (PARP5A) Colorimetric Assay Kit (BPS Bioscience). It is filed as biochemical. The following applies: top concentration 30 μM; read-out: EC50 or IC50, Poly [ADP-ribose] polymerase tankyrase-1. As to the method:
The assay was performed in a volume of 50 μL in a 96-well transparent plate. The TNKS1 assay kit (PARP5A; BPS Bioscience, USA) was performed by first coating the 96-well plate with histone proteins, then left at 4 °C overnight. Next, Poly [ADP-ribose] polymerase tankyrase-1 (TNKS1) enzyme (amino acids 1001–1323; final concentration, 1.5 ng per reaction), a mixture of biotinylated NAD^+ (PARP substrate) and compounds were incubated for 1 h at room temperature. The compounds were added at different concentrations in the reaction buffer, starting from a final concentration of 30 μM. Buffer with the same amount of DMSO (1%) was used as a negative control. After incubation, the plate was treated with streptavidin-HRP followed by the addition of the colorimetric HRP substrate generating a colored solution. The generated signal was read at an absorbance of 450 nm using a microplate reader with UV/vis spectrophotometer (Multiskan Go, Thermo Fisher Scientific, Waltham, MA, USA). Experiments were performed in triplicate. IC50 values were calculated with GraphPad Prism 8.0 software by nonlinear dose–response inhibition regression.

In test [3] the target is T3, A1 Human Adenosine GPCR (Homo sapiens, UniProt P30542).
T3 construct: Eurofins (contract assay)
T3 sequence (P30542 1-326): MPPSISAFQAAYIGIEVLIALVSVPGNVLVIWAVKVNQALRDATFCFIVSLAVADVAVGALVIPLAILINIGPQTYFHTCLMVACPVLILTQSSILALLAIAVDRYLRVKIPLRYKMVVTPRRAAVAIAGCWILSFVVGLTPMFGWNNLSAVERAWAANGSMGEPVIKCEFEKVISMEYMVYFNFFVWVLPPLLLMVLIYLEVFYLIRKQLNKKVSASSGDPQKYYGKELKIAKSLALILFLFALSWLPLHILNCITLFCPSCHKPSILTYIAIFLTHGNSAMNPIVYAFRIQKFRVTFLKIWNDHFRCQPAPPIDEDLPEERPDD
Description: Binding Antagonist Radioligand LeadHunter Assay. The following applies: Eurofins, read-out: EC50 or IC50, A1 Human Adenosine GPCR, antagonist radioligand. An excerpt: (§1) For displacement assays on G-protein coupled receptor 55 (GPR55), Vasopressin V2 receptor (V2R), Adenosine A1 receptor (A1AR), Fibroblast growth factor receptor 1 (FGFR1), Vascular endothelial growth factor receptor 2 (VEGFR2), Platelet-derived growth factor receptor beta (PDGFRB), Vascular endothelial growth factor receptor 1 (VEGFR1), Thromboxane Synthase (TXS) and Phosphodiesterase 10A (PDE10A), we commissioned the Eurofins company which employed its specific experimental methods, accessible at the link: https://www.eurofins.com/.

The target of test [4] is T4, Phosphodiesterase 10A2 (Homo sapiens, UniProt Q9Y233).
T4 construct: Eurofins (contract assay)
T4 sequence (Q9Y233 267-1055): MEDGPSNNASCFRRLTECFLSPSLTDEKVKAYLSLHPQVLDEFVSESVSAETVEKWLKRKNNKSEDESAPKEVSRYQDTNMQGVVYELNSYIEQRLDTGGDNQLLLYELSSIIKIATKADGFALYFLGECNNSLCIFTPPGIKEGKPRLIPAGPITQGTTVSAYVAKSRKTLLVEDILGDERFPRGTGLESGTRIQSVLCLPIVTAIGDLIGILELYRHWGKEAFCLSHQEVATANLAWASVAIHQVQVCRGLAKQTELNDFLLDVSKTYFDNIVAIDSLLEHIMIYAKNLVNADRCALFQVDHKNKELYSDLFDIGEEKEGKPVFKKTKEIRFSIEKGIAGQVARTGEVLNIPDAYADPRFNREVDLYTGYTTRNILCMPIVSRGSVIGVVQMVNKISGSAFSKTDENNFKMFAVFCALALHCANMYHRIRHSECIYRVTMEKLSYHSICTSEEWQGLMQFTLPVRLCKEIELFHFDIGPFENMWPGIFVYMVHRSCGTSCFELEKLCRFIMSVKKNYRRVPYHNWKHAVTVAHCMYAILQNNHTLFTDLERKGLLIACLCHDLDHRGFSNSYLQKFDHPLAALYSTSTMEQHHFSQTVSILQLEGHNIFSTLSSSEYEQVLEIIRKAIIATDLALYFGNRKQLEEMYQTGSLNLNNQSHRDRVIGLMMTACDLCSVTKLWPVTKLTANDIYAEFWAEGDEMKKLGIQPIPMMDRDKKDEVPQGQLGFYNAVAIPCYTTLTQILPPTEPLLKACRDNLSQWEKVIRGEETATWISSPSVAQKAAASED
Put plainly: Enzymatic LeadHunter Assay. In kind it is biochemical. To be noted: Eurofins enzymatic; read-out: EC50 or IC50, Phosphodiesterase 10A2.
Source text: as §1

For test [5], the target named is T5, Thromboxane Synthase (Homo sapiens, UniProt P24557).
T5 construct: Eurofins (contract assay)
T5 sequence (P24557 whole entry): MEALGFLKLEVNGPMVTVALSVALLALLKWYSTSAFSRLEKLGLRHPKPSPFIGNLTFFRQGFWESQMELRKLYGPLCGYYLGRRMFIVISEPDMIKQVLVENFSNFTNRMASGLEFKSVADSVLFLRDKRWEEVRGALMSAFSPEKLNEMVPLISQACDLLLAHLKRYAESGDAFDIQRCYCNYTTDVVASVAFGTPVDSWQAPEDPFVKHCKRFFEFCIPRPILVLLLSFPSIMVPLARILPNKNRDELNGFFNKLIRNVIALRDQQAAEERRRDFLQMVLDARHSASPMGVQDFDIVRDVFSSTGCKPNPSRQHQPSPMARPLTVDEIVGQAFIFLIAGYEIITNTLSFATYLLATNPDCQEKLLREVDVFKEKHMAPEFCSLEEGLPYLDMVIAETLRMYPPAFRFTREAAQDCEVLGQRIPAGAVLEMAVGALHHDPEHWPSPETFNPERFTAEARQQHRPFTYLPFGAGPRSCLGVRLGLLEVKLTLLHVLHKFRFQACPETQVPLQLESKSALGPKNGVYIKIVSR
Description: Enzymatic LeadHunter Assay. It is filed as biochemical. To be noted: Eurofins enzymatic; read-out: EC50 or IC50, Thromboxane Synthase.
Source text: as §1

Test [6] has as its target T6, serine/threonine-protein kinase B-raf (V600E) (Homo sapiens, UniProt P15056, V600E).
T6 construct: purchased BPS Bioscience
Description: B-Raf kinase assay (V600E; BPS Bioscience). It is filed as biochemical. The following applies: top concentration 30 μM, read-out: EC50 or IC50, serine/threonine-protein kinase B-raf. On the procedure:
The assay was performed in a volume of 50 μL in a 96-well white plate. The B-Raf kinase assay (V600E; BPS Bioscience, USA) was designed to measure B-Raf kinase activity by the use of Kinase-Glo MAX (Promega, USA), which detects ATP residual following the kinase reaction. For activity measurement, the kinase (final concentration, 2 ng per reaction), Raf substrate and ATP (final concentration, 500 μM), and compounds were incubated for 45 min at 30 °C. The compounds were added at different concentrations in the reaction buffer, starting from a final concentration of 30 μM. Buffer with the same amount of DMSO (1%) was used as a negative control. After the incubation time, Kinase-Glo MAX detection reagent was added for 15 min at room temperature. The generated luminescent signal was read in end point mode using a PerkinElmer AlphaScreen multimodal plate reader (PerkinElmer, Waltham, MA, USA). Experiments were performed in triplicate. IC50 values were calculated with GraphPad Prism 8.0 software by nonlinear dose–response inhibition regression.

Test [7] concerns A375 cells. Put plainly: Thioflavin T (ThT) protein misfolding assay. The following applies: 24 h, 31: 10, 5, 2.5 μM, 63: 20, 10, 5 μM. In kind it is cell-based, human. On the procedure:
Protein misfolding was analyzed using ThT, (Sigma-Aldrich, St. Louis, MO, USA) staining. A375 cells (5 × 10^3 cells/well) were grown in 96-well plates and allowed to adhere for 24 h. Later the medium was replaced, and cells were treated with compounds (31: 10, 5, and 2.5 μM; 63: 20, 10, and 5 μM), for 24 h. After treatments, the culture medium was replaced, cells washed twice with PBS and then suspended in 100 μL ThT (20 μM). After washing, a staining solution containing 20 μM ThT in PBS was added for 30 min at 37 °C in the dark. The stained cells were washed, and representative images were acquired using ZOE Fluorescent Cell Imaging System (Magnification, 20×). Quantitative analyses were performed reading the fluorescence signals (excitation/emission 450 nm/482 nm) using a PerkinElmer EnSpire multimode plate reader (PerkinElmer, Waltham, MA, USA).

T1 sequence (P09874 whole entry): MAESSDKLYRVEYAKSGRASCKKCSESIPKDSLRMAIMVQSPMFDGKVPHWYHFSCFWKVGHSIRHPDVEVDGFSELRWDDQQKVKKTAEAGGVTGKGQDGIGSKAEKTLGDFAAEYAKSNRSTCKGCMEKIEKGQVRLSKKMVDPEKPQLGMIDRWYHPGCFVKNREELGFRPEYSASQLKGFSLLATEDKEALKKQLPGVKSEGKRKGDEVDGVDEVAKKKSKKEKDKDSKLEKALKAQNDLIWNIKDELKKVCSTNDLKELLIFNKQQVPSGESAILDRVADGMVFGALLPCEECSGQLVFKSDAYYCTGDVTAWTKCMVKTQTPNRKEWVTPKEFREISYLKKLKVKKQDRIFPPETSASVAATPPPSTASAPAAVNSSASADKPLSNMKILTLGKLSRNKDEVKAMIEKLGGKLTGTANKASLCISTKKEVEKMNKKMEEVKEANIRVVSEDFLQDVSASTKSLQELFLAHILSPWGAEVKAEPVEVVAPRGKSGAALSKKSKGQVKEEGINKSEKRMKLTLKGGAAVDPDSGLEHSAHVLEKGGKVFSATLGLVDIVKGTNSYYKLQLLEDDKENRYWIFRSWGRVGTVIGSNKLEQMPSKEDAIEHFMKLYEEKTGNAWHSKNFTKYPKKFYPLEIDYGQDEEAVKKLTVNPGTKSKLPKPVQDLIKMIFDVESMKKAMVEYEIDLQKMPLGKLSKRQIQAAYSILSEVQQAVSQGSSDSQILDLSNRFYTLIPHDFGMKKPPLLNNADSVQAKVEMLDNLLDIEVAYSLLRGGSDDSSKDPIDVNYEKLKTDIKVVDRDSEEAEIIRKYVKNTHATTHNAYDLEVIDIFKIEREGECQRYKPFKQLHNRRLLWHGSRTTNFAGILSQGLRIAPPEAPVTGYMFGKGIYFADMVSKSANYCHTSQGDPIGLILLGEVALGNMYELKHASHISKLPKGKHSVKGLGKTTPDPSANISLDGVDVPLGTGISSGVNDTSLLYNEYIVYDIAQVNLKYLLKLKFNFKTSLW
T6 sequence (P15056 whole entry V600E): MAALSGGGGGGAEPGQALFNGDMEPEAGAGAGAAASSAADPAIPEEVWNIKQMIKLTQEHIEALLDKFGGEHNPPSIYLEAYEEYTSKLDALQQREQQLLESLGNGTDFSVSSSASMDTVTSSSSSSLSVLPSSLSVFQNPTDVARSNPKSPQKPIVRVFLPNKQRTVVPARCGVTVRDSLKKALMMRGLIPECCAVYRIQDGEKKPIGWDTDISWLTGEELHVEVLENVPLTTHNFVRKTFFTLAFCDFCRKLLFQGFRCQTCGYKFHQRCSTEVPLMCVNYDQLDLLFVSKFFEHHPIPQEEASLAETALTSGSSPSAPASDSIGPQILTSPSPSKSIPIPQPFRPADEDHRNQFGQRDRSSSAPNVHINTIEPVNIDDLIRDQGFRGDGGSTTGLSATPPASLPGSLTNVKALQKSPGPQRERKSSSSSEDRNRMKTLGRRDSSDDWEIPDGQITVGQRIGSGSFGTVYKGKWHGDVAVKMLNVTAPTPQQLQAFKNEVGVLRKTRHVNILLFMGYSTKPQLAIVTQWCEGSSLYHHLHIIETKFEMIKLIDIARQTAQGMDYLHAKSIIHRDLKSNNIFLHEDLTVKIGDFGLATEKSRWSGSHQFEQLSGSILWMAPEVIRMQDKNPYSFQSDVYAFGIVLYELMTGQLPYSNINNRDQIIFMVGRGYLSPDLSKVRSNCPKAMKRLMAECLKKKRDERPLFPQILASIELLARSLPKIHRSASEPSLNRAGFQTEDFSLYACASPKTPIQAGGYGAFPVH

Turning to `CC(C)C[C@H]1C(=O)N(Cc2ccc(C(F)(F)F)cc2)c2ccccc2C(=O)N1Cc1ccc(C(F)(F)F)cc1` [Compound 31, (S)-3-Isobutyl-1,4-bis(4-(trifluoromethyl)benzyl)-3,4-dihydro-1H-benzo[e][1,4]diazepine-2,5-dione], the IC50 in test [1] is > 30 µM; in test [2] it was > 30 µM; in test [3], ≥ 30 µM; in test [4], ≥ 30 µM; in test [5], ≥ 30 µM; in test [6], ≥ 30 µM. Further, in test [7], the “misfolded protein levels (ThT fluorescence)” value is “maximum accumulation of misfolded proteins even at 10 μM”.
With `CC(C)C[C@@H](C(=O)OCc1ccccc1)N1Cc2ccccc2NC1=O` [Compound 63, Benzyl (S)-4-Methyl-2-(2-oxo-1,4-dihydroquinazolin-3(2H)-yl)pentanoate], the IC50 in test [1] was > 30 µM; in test [2], > 30 µM; in test [3], ≥ 30 µM; in test [4], ≥ 30 µM; in test [5], ≥ 30 µM; in test [6] it was ≥ 30 µM. Moreover, in test [7], the “misfolded protein levels (ThT fluorescence)” value is “greatest increase in fluorescence at 20 μM”.
